Source: article PMC12349723, “Computationally accelerated identification of P-glycoprotein inhibitors” (PLOS One, 2025)

Test system: DU145 cells
Experiment: MTT viability assay, non-P-gp overexpressing DU145 parental line, with or without PTX
Format: cell-based, human
Settings: 15 µM compound + PTX vs PTX alone
Procedure: The chemotherapeutic sensitive DU145 human prostate cancer cells and the multidrug resistant sub-line, DU145-TXR, were generous gifts from Dr. Evan Keller (University of Michigan, Ann Arbor, MI). The MDR, P-gp overexpressing DU145-TXR cells were maintained under positive selection pressure by supplementing complete medium with 10 nM paclitaxel (Acros Organics, NJ). […] The MDR, P-gp overexpressing A2780-ADR cell line was maintained under positive selection pressure by supplementing complete medium with 100 nM doxorubicin (Fisher Scientific, NJ). The non-cancerous HFL1 (human lung fibroblast) cell line cell line was a generous gift from Dr. Robert Harrod (Southern Methodist University, Dallas, TX) and was maintained in complete F12K media consisting of F12K with 10% fetal bovine serum, 100 U/mL penicillin, and 100 µg/mL streptomycin (Gibco). Flasks and 96 well plates that were used with the non-cancerous line HFL1 were pre-treated with 0.1 mg/ml Collagen Type 1 (Gibco) and rinsed with PBS (Fisher).
Culture of the DU145, DU145-TXR, and HFL1 cell lines was performed as described in [8]. Culture of the A2780 and A2780-ADR cell lines was performed as described in [9]. MTT assays were performed as described in [8] with minor modifications. […] Data represent the mean of two separate experiments, with n = 3 samples per experiment (n = 6 total) (S4 Table).
MTT assays measure the reduction of yellow, water soluble 3-(4,5-dimethylthiazol-2-yl)-2,5-diphenyltetrazolium bromide (MTT) to blue, insoluble formazan crystals by cellular reductase processes in living cells. Cells were trypsinized from monolayers and seeded in complete medium in 96 well plates. Cancerous cell lines (DU145, DU145-TXR, A2780, A2780-ADR) were seeded at 3,000 cells per well in complete RPMI medium. The non-cancerous HFL1 line was seeded at 4,000 cells per well in complete F12K medium, in collagen-treated plates (Collagen Type 1, Gibco). Cells were incubated with experimental compounds for 48 hours at 37 °C and 5% CO2 in a humidified incubator. At 48 hours, MTT was added (20 µL/well of 5 mg/mL MTT in PBS) to each well. After incubation for 4 hours, the media was removed, and the formazan crystals were dissolved in 100 µL DMSO per well. Plates containing the semi-adherent A2780 or A2780-ADR lines were spun at 1400 rpm for 3 minutes prior to aspiration of media, and the addition of DMSO. Plates were shaken for 10 minutes at 500 rpm on an Orbital shaker (LabDoctor from MidSci, St Louis, MO). The absorbance was measured at 570 nm using a Bio-Tek Cytation 5 (Bio-Tek, Winooski, VT). The measured absorbance value was correlated with the number of metabolically active cells in that well, corrected for absorbance of media. The percent of cell viability (termed ‘survival’ here) was calculated as a percentage of survival of the control condition, which refers to vehicle-treated (DMSO as vehicle) cells, or vehicle-and-chemotherapeutic-treated cells, if testing a compound’s ability to re-sensitize cells to a chemotherapeutic. Percent survival was calculated using the following equation:
% Survival=100 × absorbance of experimental cells/mean absorbance of control treated cells
For DU145-TXR, DU145, HFL1 and A2780 cells – data are the mean ± one standard deviation, 8 samples per compound, from at least two independent trials per compound. […] For A2780-ADR cells, data are the mean ± one standard deviation with 12 samples per compound, from at least two independent trials per compound.
67 compounds were chosen from computational screens for testing in vitro. A) DU145-TXR cells were exposed to 15 µM experimental compound with or without 500 nM of the P-gp substrate and chemotherapeutic paclitaxel (PTX).

| Compound | Sensitization of DU145 cells to PTX |
| --- | --- |
| O=S(=O)(CCSc1nnc(-c2ccccc2)c2ccccc12)c1ccccc1 [Compound 96, O=S(=O)(CCSc1nnc(-c2ccccc2)c2ccccc12)c1ccccc1] | insignificantly sensitize DU145 cells to PTX |
| O=C(NCc1cccc(F)c1)c1nnn2c1Sc1c(C(=O)NCc3cccc(F)c3)nnn1CC2 [Compound 122, Fc1cccc(CNC(=O)c2nnn3CCn4nnc(C(=O)NCc5cccc(F)c5)c4Sc23)c1] | insignificantly sensitize DU145 cells to PTX |

Same assay, conditions: DU145 cells, 48 h, mean of 8 samples

| Compound | % Survival, Mean, 15 µM compound + 500 nM PTX [%] |
| --- | --- |
| O=S(=O)(CCSc1nnc(-c2ccccc2)c2ccccc12)c1ccccc1 [Compound 96, O=S(=O)(CCSc1nnc(-c2ccccc2)c2ccccc12)c1ccccc1] | 28.8 |
| O=C(NCc1cccc(F)c1)c1nnn2c1Sc1c(C(=O)NCc3cccc(F)c3)nnn1CC2 [Compound 122, Fc1cccc(CNC(=O)c2nnn3CCn4nnc(C(=O)NCc5cccc(F)c5)c4Sc23)c1] | 19.4 |

Same assay, conditions: DU145 cells, 48 h, single samples, 2 trials x 4 samples

| Compound | % Survival, 15 µM Compound alone (individual samples) [%] | % Survival, 15 µM compound + 500 nM PTX (individual samples) [%] |
| --- | --- | --- |
| O=S(=O)(CCSc1nnc(-c2ccccc2)c2ccccc12)c1ccccc1 [Compound 96, O=S(=O)(CCSc1nnc(-c2ccccc2)c2ccccc12)c1ccccc1] | 65 | 26 |

Same assay, conditions: Homo sapiens, DU-145, 48 h, DU145 cells, 48 h, mean of 8 samples, read-out: % Survival, Mean, 15 µM Compound alone

| Compound | viability at 15 µM [%] |
| --- | --- |
| O=S(=O)(CCSc1nnc(-c2ccccc2)c2ccccc12)c1ccccc1 [Compound 96, O=S(=O)(CCSc1nnc(-c2ccccc2)c2ccccc12)c1ccccc1] | 77 |
| O=C(NCc1cccc(F)c1)c1nnn2c1Sc1c(C(=O)NCc3cccc(F)c3)nnn1CC2 [Compound 122, Fc1cccc(CNC(=O)c2nnn3CCn4nnc(C(=O)NCc5cccc(F)c5)c4Sc23)c1] | 60.9 |

Target: T1, P-gp (Homo sapiens, UniProt P08183)
T1 construct: The MDR, P-gp overexpressing DU145-TXR cells were maintained under positive selection pressure; endogenous in cells; host or cells: DU145-TXR (paclitaxel-resistant sub-line of DU145 human prostate cancer cells)
T1 sequence (P08183 whole entry): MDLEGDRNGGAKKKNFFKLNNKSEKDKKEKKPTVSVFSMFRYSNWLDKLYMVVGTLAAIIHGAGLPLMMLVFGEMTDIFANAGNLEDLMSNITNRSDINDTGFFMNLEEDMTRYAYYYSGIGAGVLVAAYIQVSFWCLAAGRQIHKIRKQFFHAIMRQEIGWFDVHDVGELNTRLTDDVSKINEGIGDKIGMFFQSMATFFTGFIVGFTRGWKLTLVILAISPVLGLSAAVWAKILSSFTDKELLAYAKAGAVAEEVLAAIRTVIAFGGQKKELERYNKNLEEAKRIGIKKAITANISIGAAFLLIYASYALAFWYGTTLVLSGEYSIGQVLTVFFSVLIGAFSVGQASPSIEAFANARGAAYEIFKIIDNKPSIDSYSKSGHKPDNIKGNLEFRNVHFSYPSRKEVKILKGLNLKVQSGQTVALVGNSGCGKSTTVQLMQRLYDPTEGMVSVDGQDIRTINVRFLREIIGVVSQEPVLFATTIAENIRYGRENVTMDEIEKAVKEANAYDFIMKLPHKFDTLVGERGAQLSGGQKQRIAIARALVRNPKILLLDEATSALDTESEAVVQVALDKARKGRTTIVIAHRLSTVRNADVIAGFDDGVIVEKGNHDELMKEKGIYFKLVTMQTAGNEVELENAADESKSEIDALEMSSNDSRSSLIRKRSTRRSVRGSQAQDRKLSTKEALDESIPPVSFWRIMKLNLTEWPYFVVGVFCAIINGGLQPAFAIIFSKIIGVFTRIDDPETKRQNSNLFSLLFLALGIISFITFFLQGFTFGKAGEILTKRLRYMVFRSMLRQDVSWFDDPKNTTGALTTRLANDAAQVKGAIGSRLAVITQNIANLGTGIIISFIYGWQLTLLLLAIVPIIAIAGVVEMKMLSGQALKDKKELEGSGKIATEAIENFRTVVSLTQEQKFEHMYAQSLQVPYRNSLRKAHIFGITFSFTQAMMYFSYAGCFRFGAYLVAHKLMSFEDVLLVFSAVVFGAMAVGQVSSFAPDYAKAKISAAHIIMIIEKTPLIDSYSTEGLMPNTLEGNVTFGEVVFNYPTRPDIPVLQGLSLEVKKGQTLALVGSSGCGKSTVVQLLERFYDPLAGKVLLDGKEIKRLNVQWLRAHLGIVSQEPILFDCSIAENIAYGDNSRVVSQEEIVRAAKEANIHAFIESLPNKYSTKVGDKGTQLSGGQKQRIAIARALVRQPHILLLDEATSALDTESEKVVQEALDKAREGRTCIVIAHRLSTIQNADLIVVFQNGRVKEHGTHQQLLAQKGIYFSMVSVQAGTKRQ
Experiment: LC-MS/MS intracellular accumulation assay with or without tariquidar (P-gp transport substrate test) in DU145-TXR cells
Format: in vitro ADME
Settings: DU145-TXR, 5 µM compound with or without 500 nM tariquidar, 2.5 h, LC-MS/MS
Procedure: DU145-TXR cells were seeded at 350,000 cells per well in 6-well plates in complete RPMI medium. […] A full sample of DAU was also prepared for quantitative analysis. […] Media was removed with a glass vacuum aspirator. Cells were re-suspended and washed in 2mL of ice-cold Hank’s Balanced Salt Solution (HBSS, Gibco), and spun again at 2400 rpm. Cell lysates were diluted in 600 µL of ice-cold HBSS, flash-frozen in liquid nitrogen, and stored at −80 °C until analysis. LC-MS/MS intracellular accumulation assays were performed in collaboration with the Pharmacology Core at the University of Texas Southwestern Medical Center (UTSW). […] This method allowed us to quantify the change – if any – in the relative amount of compound present in the samples when TQR was added. An increase in the relative amount of compound indicates enhanced intracellular retention that compound. […] The “Internal Standard” (IS) is a known substance added in a constant amount to each sample. The “Peak Area”, expressed as “counts”, describes the number of MS/MS spectra from the experimental compound and serves as a measure of its relative abundance. […] These values allow a comparison of the relative abundance of compound between the “- TQR” and “+ TQR” samples, and to test for statistically significant differences. LC-MS/MS quantification was performed as follows. Cell lysate was aliquoted into Eppendorf tubes. In contrast to [9], blank cell lysates were not spiked with varying concentrations of each compound to create a standard curve, since compound amounts were normalized to abundance of the internal standard. […] The supernatant was then transferred to an HPCL vial, and subsequently analyzed using LC-MS/MS using a Sciex 4000QTRAP mass spectrometer coupled to a Shimadzu Prominence LC. […] The column flow rate was 1.5 ml/min using an Agilent C18 XDB, 5 micron packing 50 × 4.6 mm column. […] A BSA standard curve was then prepared in water and mixed using the same ratio. […] The ratio of Analyte to Internal Standard was normalized to the lysate content for each individual sample. […] Statistical significance was determined using a Student’s T Test in GraphPad Prism. We aimed to identify P-gp inhibitors that are not transport substrates of the pump itself. […] To test these predictions in vitro, liquid chromatography with tandem mass spectrometry (LC-MS/MS) was used to assess the intracellular accumulation of experimental compounds as described in [9]. […] The relative intracellular accumulation of each experimental compound was then assessed using LC-MS/MS. […] The P-gp substrate and chemotherapeutic daunorubicin (DAU) was used as a positive control for P-gp-mediated transport.

| Compound | P-gp transport substrate assessment |
| --- | --- |
| O=S(=O)(CCSc1nnc(-c2ccccc2)c2ccccc12)c1ccccc1 [Compound 96, O=S(=O)(CCSc1nnc(-c2ccccc2)c2ccccc12)c1ccccc1] | unlikely to be transport substrates of P-gp |
| O=C(NCc1cccc(F)c1)c1nnn2c1Sc1c(C(=O)NCc3cccc(F)c3)nnn1CC2 [Compound 122, Fc1cccc(CNC(=O)c2nnn3CCn4nnc(C(=O)NCc5cccc(F)c5)c4Sc23)c1] | potential P-gp transport substrates |

Same assay, conditions: DU145-TXR, 5 µM compound, 2.5 h, with 500 nM tariquidar; mean ± SD, triplicate

| Intracellular accumulation (normalized ratio of compound to internal standard), Trial 1, + TQR | Intracellular accumulation (normalized ratio of compound to internal standard), Trial 2, + TQR | Compound |
| --- | --- | --- |
| 0.092 ± 0.036 | 0.163 ± 0.032 | O=S(=O)(CCSc1nnc(-c2ccccc2)c2ccccc12)c1ccccc1 [Compound 96, O=S(=O)(CCSc1nnc(-c2ccccc2)c2ccccc12)c1ccccc1] |
| 0.146 ± 0.018 | 0.209 ± 0.014 | O=C(NCc1cccc(F)c1)c1nnn2c1Sc1c(C(=O)NCc3cccc(F)c3)nnn1CC2 [Compound 122, Fc1cccc(CNC(=O)c2nnn3CCn4nnc(C(=O)NCc5cccc(F)c5)c4Sc23)c1] |

Same assay, conditions: DU145-TXR, 5 µM compound, 2.5 h, without tariquidar; mean ± SD, triplicate

| Intracellular accumulation (normalized ratio of compound to internal standard), Trial 1, - TQR | Intracellular accumulation (normalized ratio of compound to internal standard), Trial 2, - TQR | Compound |
| --- | --- | --- |
| 0.087 ± 0.009 | 0.121 ± 0.005 | O=S(=O)(CCSc1nnc(-c2ccccc2)c2ccccc12)c1ccccc1 [Compound 96, O=S(=O)(CCSc1nnc(-c2ccccc2)c2ccccc12)c1ccccc1] |
| 0.049 ± 0.005 | 0.058 ± 0.018 | O=C(NCc1cccc(F)c1)c1nnn2c1Sc1c(C(=O)NCc3cccc(F)c3)nnn1CC2 [Compound 122, Fc1cccc(CNC(=O)c2nnn3CCn4nnc(C(=O)NCc5cccc(F)c5)c4Sc23)c1] |

Same assay, conditions: Student's T test of the mean

| P (- TQR vs + TQR), Trial 1 | P (- TQR vs + TQR), Trial 2 | Compound |
| --- | --- | --- |
| 0.8 | 0.09 | O=S(=O)(CCSc1nnc(-c2ccccc2)c2ccccc12)c1ccccc1 [Compound 96, O=S(=O)(CCSc1nnc(-c2ccccc2)c2ccccc12)c1ccccc1] |
| 0.0008 | 0.0003 | O=C(NCc1cccc(F)c1)c1nnn2c1Sc1c(C(=O)NCc3cccc(F)c3)nnn1CC2 [Compound 122, Fc1cccc(CNC(=O)c2nnn3CCn4nnc(C(=O)NCc5cccc(F)c5)c4Sc23)c1] |

Same assay, conditions: significant difference = likely P-gp transport substrate

| Significance of accumulation with tariquidar, Trial 1 | Significance of accumulation with tariquidar, Trial 2 | Compound |
| --- | --- | --- |
| N.S. (P > 0.05 = not significant (N.S.)) | N.S. (P > 0.05 = not significant (N.S.)) | O=S(=O)(CCSc1nnc(-c2ccccc2)c2ccccc12)c1ccccc1 [Compound 96, O=S(=O)(CCSc1nnc(-c2ccccc2)c2ccccc12)c1ccccc1] |
| *** (P < 0.001 = ***) | *** (P < 0.001 = ***) | O=C(NCc1cccc(F)c1)c1nnn2c1Sc1c(C(=O)NCc3cccc(F)c3)nnn1CC2 [Compound 122, Fc1cccc(CNC(=O)c2nnn3CCn4nnc(C(=O)NCc5cccc(F)c5)c4Sc23)c1] |
